We go through 9 compounds from US12391660B2, “Heteroaromatic acetamide derivative, and preparation and use thereof” (Hangzhou Westan Pharmaceutical Technology Co., Ltd, priority 2019, dated 2025).

The structures appear in SMILES notation.

In assay [1] the target is T1, human TRPA1 (Homo sapiens (Human), UniProt O75762). Kind of assay: Inhibitory activity on human TRPA1 by conventional patch clamp assay. The class given is cell-based. The note with it: HEK293 human TRPA1, 100 μM cinnamaldehyde. The text has this: 2. Inhibitory Activity on Human TRPA1 by Conventional Patch Clamp Assay
T1 sequence (O75762 whole entry): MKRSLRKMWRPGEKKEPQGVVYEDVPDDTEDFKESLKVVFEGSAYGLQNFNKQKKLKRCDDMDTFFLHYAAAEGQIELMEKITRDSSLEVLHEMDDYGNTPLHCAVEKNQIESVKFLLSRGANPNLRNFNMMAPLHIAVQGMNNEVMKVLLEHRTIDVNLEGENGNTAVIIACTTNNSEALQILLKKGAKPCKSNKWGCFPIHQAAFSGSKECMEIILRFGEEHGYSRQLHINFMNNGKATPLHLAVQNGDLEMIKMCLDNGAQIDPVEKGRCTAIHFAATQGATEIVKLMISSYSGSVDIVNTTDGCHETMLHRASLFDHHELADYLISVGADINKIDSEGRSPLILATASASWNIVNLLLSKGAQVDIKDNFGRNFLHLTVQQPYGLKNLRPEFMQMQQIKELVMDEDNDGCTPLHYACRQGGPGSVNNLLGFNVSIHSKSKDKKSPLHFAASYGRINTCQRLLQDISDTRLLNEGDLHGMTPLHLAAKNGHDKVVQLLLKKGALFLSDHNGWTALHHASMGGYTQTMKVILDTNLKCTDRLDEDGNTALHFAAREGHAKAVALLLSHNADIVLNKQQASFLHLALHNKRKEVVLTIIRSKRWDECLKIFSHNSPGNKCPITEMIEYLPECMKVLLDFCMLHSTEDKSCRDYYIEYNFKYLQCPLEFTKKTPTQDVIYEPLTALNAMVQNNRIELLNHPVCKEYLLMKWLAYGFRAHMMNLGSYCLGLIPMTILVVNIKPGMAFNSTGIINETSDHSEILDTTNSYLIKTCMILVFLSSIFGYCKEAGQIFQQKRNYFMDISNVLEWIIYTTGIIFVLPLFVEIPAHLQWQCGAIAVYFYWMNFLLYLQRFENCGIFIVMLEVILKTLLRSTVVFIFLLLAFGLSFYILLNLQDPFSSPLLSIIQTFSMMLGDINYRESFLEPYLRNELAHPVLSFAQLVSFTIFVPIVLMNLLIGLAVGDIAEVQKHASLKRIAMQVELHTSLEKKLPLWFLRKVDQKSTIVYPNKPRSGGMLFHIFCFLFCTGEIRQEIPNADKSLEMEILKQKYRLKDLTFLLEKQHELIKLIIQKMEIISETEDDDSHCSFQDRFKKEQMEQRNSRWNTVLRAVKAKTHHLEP
In order to compare the influences of different measuring methods on the inhibitory activity of compounds, a conventional patch clamp method was used to further measure the inhibitory activity of compounds 1, 11, 31, 50, and 78 on TRPA1. The principle and procedures of the conventional patch clamp assay could be found in the literature report of Chen et al [Chen et al. Pain 2011, 152(5):1165-72].
Evaluation of TRPA1 inhibitory activity of compounds was conducted using the HEK293 recombinant cell strain (Creative Biogene, NY) stably expressing human TRPA1. Cells were cultured in a DMEM/F12 (3:1, Thermo Fisher Scientific) medium (containing 5% calf serum, 2 mM glutamine and 20 mM HEPES) in an incubator at 37° C. and air humidity containing 5% CO2.
During the experiment, the adherent cells were placed in a recording room under the inverted microscope. All experiments were performed at room temperature. Each cell itself was used as a control thereof.
Test compounds at a final concentration were all prepared on the testing day and then dissolved in the extracellular fluid. The extracellular fluid was (mM): NaCl, 137; KCl, 4; CaCl2, 1.8; MgCl2, 1; HEPES, 10; glucose 10; pH 7.4 (NaOH titration). All the solutions of the test compounds and control compounds contained 0.3% DMSO.
The compounds were all perfused with a perfusion system by virtue of their own gravity. At least two cells were tested for each concentration of the compound. After the current became stable, the variation in magnitude of the current before and after the compound was used to calculate the blocking effect of the compound. 100 μM cinnamaldehyde was used as the positive control.
The cells were transferred to the perfusion tank and perfused with extracellular fluid. The intracellular fluid was: 130 mM K-aspartate; 5 mM MgCl2; 5 mM EGTA; 10 mM
HEPES; pH 7.2 (KOH titration). The intracellular fluid was stored in a small amount in a −80 degree refrigerator in batches, and thawed on the day of the experiment. The electrode was pulled with PC-10 (Narishige, Japan). Whole-cell patch clamp recording was adopted and noise was filtered at one-fifth of the sampling frequency.
The cells were clamped at 20 mV, and then depolarized to 80 mV with a square wave of 500 milliseconds to obtain the TRPA1 current (see FIG. 1).
This procedure was repeated every 3 seconds. Cells were patched in a normal extracellular fluid, current A was obtained via voltage procedure testing, and then perfusion was conducted with an extracellular fluid added with 100 μM cinnamaldehyde to activate TRPA1 current to obtain current B. After the current stabilized, elution was conducted with normal extracellular fluid and perfusion was conducted with an extracellular fluid added with 100 μM cinnamaldehyde and a compound at various concentrations to obtain current C. Finally, blocking rate of the compound was obtained according to […], see FIG. 2.
Data collection and analysis was conducted using pCLAMP 10 (Molecular Devices, Union City, CA). Current stabilization meant that the variation in the current with time was within a limited range. The magnitude of the current after stabilization was used to reflect the effect of the compound in this process.

The target in assay [2] is T1, human TRPA1. Kind of assay: FLIPR assay of inhibitory activity on human TRPA1 (calcium ion flux fluorescence). The class given is cell-based. The note with it: HEK293 cells stably expressing human TRPA1. As to the method: 1. FLIPR Assay of Inhibitory Activity on Human TRPA1
A calcium ion flux fluorescence method (FLIPR assay) was adopted to measure the inhibitory activity of compounds on human TRPA1 channel. The literature reports of Lee and Chen et al. may be referred to for the method [Lee et al. Br J Pharmacol 2008, 153 (8): 1739-1749] [Chen et al. Pain 2011, 152(5):1165-72].
A HEK293 recombinant cell strain stably expressing human TRPA1 (Creative Biogene, NY) was cultured in DMEM (Thermo Fisher Scientific, Shanghai) medium (containing 10% calf serum, 5 μg/ml Blasticidin and 400 ug/ml G418). The incubator was under a condition of 37° C. and air humidity with 5% CO2.
TRPA1 cells were seeded in a 96-well analysis plate at a density of 75,000 cells per well (100 ul/well), and cultured overnight in an incubator at 37° C. and 5% CO2. On the second day, incubation was continued overnight under the same condition to induce the expression of TRPA1 after the culture medium in each well was poured out and a fresh supplement with the same culture medium containing 0.1 μg/ml Tetracycline was added. The further next day, the culture medium was pour out, a DMEM culture solution (also containing 2.5 mM Probenicid) containing 5 μM Fluo-4 AM (Molecular Probes) was added to each well, and incubation was conducted at 37° C. for 1 hour.
The compound was dissolved in 100% DMSO to prepare a 30 mM stock solution which was stored at −20° C. On the day of use, the compound stock solution was thawed at room temperature. Each compound was subjected to 1:5 serial dilution using DMSO medium at a starting concentration of 30 μM with 9 concentration points on a 96-well plate. Each compound was diluted in duplicate for testing. Ruthenium Red was used as the positive control compound and the same dilution was carried out at a starting concentration of 3 μM.
The cell analysis plate was placed in an FLIPR instrument […], and the compound in the compound plate was added to the corresponding hole on the cell analysis plate (First addition) via an automatic program, and the calcium ion fluorescence signal was recorded to determine whether the compound had agonistic activity. After 10 minutes, CaCl2 (Second addition) was added a final concentration of 3 mM to each well to stimulate intracellular calcium flux signals. Ca^++-dependent fluorescence signal was monitored continuously at 538 nm wavelength to analyze the inhibitory activity of the compounds.
The data was collected and analyzed using a FLIPR program. The fluorescence peak value was used to evaluate the inhibitory (or agonistic) activity of the compounds at each concentration. EXCEL and PRISM programs were used to calculate the IC50 value of the compounds.

A further assay relates to mouse asthma model. The note with it: cited from earlier work.
The test system of the next assay is mouse model of COPD. As to conditions: pretreatment of mice, cigarette smoke; cited from earlier work.
The test system of a further assay is guinea pigs. The note with it: cough induced by acrolein, crotonaldehyde, cinnamaldehyde; cited from earlier work.
The next assay concerns asthmatic rats. Kind of assay: Ovalbumin-induced asthma rat model (HE staining, lung tissue inflammation area, airway inflammation score). The format is in vivo, SD rats. As to conditions: compared with the model group. An excerpt:
4. Effects of Compounds on Ovalbumin-Induced Asthma in Mouse and Rat Models
SPF-grade SD male rats (purchased from Zhejiang Academy of Medical Sciences, license number SCXK (Zhejiang) 2019-0002) with a body weight of 160-180 g; and SPF-grade female BABL/c mice (purchased from Zhejiang Weitong Lihua Experimental Animals Technology Co., Ltd., license number SCXK (Zhejiang) 2019-0001) with a body weight of 16-18 g were used. The above animals were raised by the Experimental Animal Center of Zhejiang Academy of Traditional Chinese Medicine.
Formulation of compound solution: compound was vortexed in a solvent system, dissolved by ultrasound, and prepared into a solution at a corresponding concentration, which was prepared just before use (the solvent system was composed of 5% Solutol HS 15, 5% DMSO and 90% physiological saline).
BABL/c mice or SD rats were randomly divided into: normal control group, model control group, dexamethasone group (0.72 mg/kg), and the respective test compound groups (one group for each dose), 10 mice in each group; 6 rats in each group.
Sensitization of rats: On Day 1 and Day 8, the model control group and the respective drug administration groups were intraperitoneally injected with 1 ml of 10% OVA sensitizing solution, and the normal group was intraperitoneally injected with an equal volume of normal saline.
Rat: from Day 15, the dexamethasone group and the respective test compound groups were intraperitoneally injected, 20 minutes before challenge, with the corresponding drugs with an injection volume of 0.3 ml/100 g; the model control group was intraperitoneally injected, 20 minutes before challenge, with an equal volume of solvent system; and the normal control group was not treated. Administration was conducted for 7 consecutive days. […]
The rat was anesthetized with 10% urethane at 1.3 ml/100 g volume, and the left lung tissue was taken and fixed in 4% neutral formaldehyde, paraffin-embedded according to routine operation, sectioned for HE staining. […] NIS-Elements D 3.2 software was used to manually integrate and measure the total area of lung tissue sections and the inflammation area under all fields of view, the total areas under each field of view were accumulated, and the percentage of the cumulative area of inflammation in the total area was calculated, wherein the percentage of inflammation area=cumulative area of inflammation/total area×100%.
All data were expressed as mean±standard deviation (x±s), and the data were processed by SPSS 20.0 statistical software. […]

For the compound `N#Cc1ccc(NC2(C(=O)N3CCN(c4cccc(C(F)(F)F)n4)CC3)CCCC2)cc1` [Compound 11, 4-((1-(4-(6-(trifluoromethyl)pyridin-2-yl)piperazine-1-carbonyl)cyclopentyl)amino)benz onitrile], the results for the IC50 against human TRPA1 [1] and at human TRPA1 [2] were 35 nM and 19 nM, respectively.

`N#Cc1ccc(OC2(C(=O)N3CCN(c4nccc(C(F)(F)F)n4)CC3)CCCC2)cc1` [Compound 50, 4-((1-(4-(4-(trifluoromethyl)pyrimidin-2-yl)piperazine-1-carbonyl)cyclopentyl)oxy)benz onitrile]: the results for the IC50 against human TRPA1 [1] and on human TRPA1 [2] were 65 nM and 28 nM, respectively.

Take `CC(C)(C)N1CCN(C(=O)C2Cc3cc(C#N)ccc3N2)CC1` (centres unmarked) [Compound 77, 2-(4-(tert-butyl)piperazine-1-carbonyl)-5-cyanoindoline]: at human TRPA1 [2], the IC50 is 91 nM.

As for `CC(C)(C)C1CCN(C(=O)C2Cc3cc(C#N)ccc3N2)CC1` (centres unmarked) [Compound 78, 2-(4-(tert-butyl)piperidine-1-carbonyl)-5-cyanoindoline], the IC50 on human TRPA1 [1] came out at 83 nM; on human TRPA1 [2], 53 nM.

Regarding `CC(C)(C)C1CCN(C(=O)C2Cc3cc(C#N)ccc3O2)CC1` (centres unmarked) [Compound 79, 2-(4-(tert-butyl)piperidine-1-carbonyl)-2,3-2H-5-cyanoben-zofuran], on human TRPA1 [2], the concentration for half-maximal inhibition (IC50) turned out to be 82 nM.

As to `CC(C)(C)N1CCN(C(=O)C2Cc3cc(C#N)ccc3O2)CC1` (centres unmarked) [Compound 80, 2-(4-(tert-butyl)piperazine-1-carbonyl)-2,3-2H-5-cyano-benzofuran], the half-inhibitory concentration (IC50) on human TRPA1 [2] is 68 nM.

`Cn1c(=O)c2c(CC(=O)Nc3nc(-c4ccc(F)c(C(F)(F)F)c4F)cs3)csc2n(C)c1=O` [GRC17536]: in the assay with mouse asthma model, the acidophilic leukocytes entry is “reduce”; the “mucus secretion and airway hyperreactivity” value is listed as “inhibit”.

Take `CC(C)c1ccc(NC(=O)Cn2cnc3c2c(=O)n(C)c(=O)n3C)cc1` [HC-030031]: the “plasma protein extravasation induced by CS” value in the assay with mouse model of COPD is “protective effect”. Also, the cough response entry in the assay on guinea pigs was “significantly attenuate”.

Consider `C[C@@H]1C[C@H]2[C@@H]3CCC4=CC(=O)C=C[C@]4(C)[C@@]3(F)[C@@H](O)C[C@]2(C)[C@@]1(O)C(=O)CO` [dexamethasone, reference compound], for which the “lung tissue inflammation and inflammatory cell infiltration around the airway (HE x40)” value in the assay on asthmatic rats is recorded as “significant improvement”.

A word on the IC50: it is the concentration that inhibits the measured activity by half.
